Data published in patent US6331548A, “1-cycloalkyl-1,8-naphthyridin-4-one derivative as type IV phosphodiesterase inhibitor” (Suntory Limited, priority 1998, dated 2001).

Experiments:
[1] = system: TNF-α production by LPS stimulated macrophages; assay: TNF-α production inhibitory activity by LPS stimulated macrophages; format: cell-based; conditions: Macrophage, BALB/c mouse peritoneal macrophages, cultured for 8 hours, ELISA
Procedure: The following assay was used to evaluate the ability of the compound of the present invention to suppress TNF-α production by LPS stimulated macrophages according to Immunopharmacol. 29, 121-127 (1995).
1) 6 to 10 week old female BALB/c mice were used, 2 ml portions of thioglycolate were intraperitoneally administered, and the abdominal cavities were washed by 10 ml of PBS after 4 days, whereby 1 to 2×10^7 peritoneal cells were obtained per mouse. These were suspended in a hemocyte solution (0.75% ammonium chloride, 17 mM tris-hydrochlorate buffer, pH7.2), centrifuged, then resuspended in an RPMI1640 medium including 10% fetal calf serum and seeded in a 96-well cell culture plate at a density of 1×10^5 cells/50 μl/well. Since these cells adhered strongly to the tissue culture plate and were positive in nonspecific esterase staining, they were used for the test as mouse peritoneal macrophages. Mouse peritoneal macrophages were precultured overnight at 37° C. in […] for the experiment.
2) E. Coli (serum type 055:B5) derived LPS was dissolved in PBS in a concentration of 1 mg/ml, then sterilized by filtration. The test compound was dissolved in DMSO to make a 1000-fold concentration solution of the final concentration of use. 10 μl of the above LPS stock solution (final concentration 10 μg/ml) and 1 μl of the tested substance stock solution were added and mixed in 0.5 ml of RPMI1640 medium containing 10% fetal calf serum. This was added to the above cells at 50 μl/well and cultured for 8 hours. The cultured supernatant was recovered from each well and the TNF-α concentration was measured by the ELISA method (Cytoscreen® Immunoassay Kit Mouse TNF-α, BioSourse International).
The comparative example was the compound described in WO-A-97-04775, Example 1, mentioned above.

[2] = target: type IV phosphodiesterase; assay: Type IV phosphodiesterase inhibiting activity; format: biochemical, human; conditions: U937 type IV phosphodiesterase fraction, 0.28 μM cAMP, pH 7.5, 30° C., 30 minutes; read-out: PDEIV-IC50
Procedure: The following assay was used to evaluate the ability of the compound of the present invention to suppress type IV phosphodiesterase, according to Biochemical. Pharmacol. 48 (6), 1219-1223 (1994).
1) Type IV phosphodiesterase activity fractions were prepared as follows. Namely, human histiocytic lymphoma cell line U937 was cultured in an RPMI1640 medium containing 10% fetal calf serum to obtain 10^9 cells of U937. The cells were recovered by centrifugation and suspended in 40 ml of buffer A (20 mM bis-tris, 5 mM 2-mercaptoethanol, 2 mM benzamidine, 2 mM EDTA, 0.1 mM 4-(2-aminoethyl)benzensulfonyl hydrochloride, 50 mM sodium acetate, pH=6.5). The cells were broken by a sonication and centrifuged (4° C., 10,000 G, 10 minutes) to obtain a supernatant. This was filtered by a 0.45 μm filter to obtain the soluble fraction.
2) The soluble fraction obtained was applied into a 1×10 cm DEAE Sepharose column equalibrated with the buffer A. 120 ml of the buffer A containing a linear gradient solution of 0.05 to 1M sodium acetate was used to separate the phosphodiesterase and recover 24 5-ml fractions. Each of the fractions was measured for the cAMP phosphodiesterase activity.
3) The test compound was reacted at a desired concentration in a reaction mixture containing 20 mM tris-HCl (pH 7.5), 1 mM MgCl2, 100 μM EDTA, 330 μg/ml calf serum albumin, 10 μg/ml 5'-nucleotidase, 0.4 μCi ^3 H-cAMP (0.28 μM cAMP) and the type IV phosphodiesterase stored solution at 30° C. for 30 minutes. QAE-Sephadex suspended in 10 mM of hepes-Na (pH -7.0) was added to the reaction mixture which was then allowed to stand for 5 minutes, then the supernatant was obtained, QAE-Sephadex was further added, to the supernatant, and was allowed to stand for 5 minutes, then the supernatant was obtained and measured for radioactivity.

IC50 [1] [nM]	IC50 [2] [nM]	Compound
10	1.3	CCNC(=O)N1CCC(n2cc(C(=O)Nc3c(Cl)cncc3Cl)c(=O)c3cccnc32)CC1 [Example 27, N-(3,5-dichloropyridin-4-yl)-1-(1-ethylaminocarbonylpiperidin-4-yl)-1,4-dihydro[1,8]naphthylidin-4-one-3-carboxamide]
1	4.7	CCNC(=O)N1CC[C@H](n2cc(C(=O)Nc3c(Cl)cncc3Cl)c(=O)c3cccnc32)C1 [Example 18, (S)-N-(3,5-dichloropyridin-4-yl)-1-(1-ethylaminocarbonylpyrrolidin-3-yl)-1,4-dihydro[1,8]naphthylidin-4-one-3-carboxamide]
0.04	1	O=C(Nc1c(Cl)cncc1Cl)c1cn([C@H]2CC[C@@H](O)CC2)c2ncccc2c1=O [Example 119, N-(3,5-dichloropyridin-4-yl)-1-(cis-4-hydroxycyclohexyl)-1,4-dihydro[1,8]naphthylidin-4-one-3-carboxamide]
10	2.5	O=C(Nc1c(Cl)cncc1Cl)c1cn(C2CC2)c2ncccc2c1=O [Example 140, N-(3,5-dichloropyridin-4-yl)-1-cyclopropyl-1,4-dihydro[1,8]naphthylidin-4-one-3-carboxamide]
7	6.3	CNC(=S)N1CC[C@H](n2cc(C(=O)Nc3c(Cl)cncc3Cl)c(=O)c3cccnc32)C1 [Example 19, (S)-N-(3,5-dichloropyridin-4-yl)-1-(1-methylaminothiocarbonylpyrrolidin-3-yl)-1,4-dihydro[1,8]naphthylidin-4-one-3-carboxamide]
2000	69	CN(C)C(=O)[C@@H]1C[C@H](n2cc(C(=O)Nc3c(Cl)cncc3Cl)c(=O)c3cccnc32)CN1 [Example 93, N-(3,5-dichloropyridin-4-yl)-1-[(3S,5S)-(5-dimethylaminocarbonyl)pyrrolidin-3-yl]-1,4-dihydro[1,8]naphthylidin-4-one-3-carboxamide]

Further lines, the molecule ahead of its results:

Compound	IC50 [1] [nM]	IC50 [2] [nM]
CO[C@H]1CC[C@H](n2cc(C(=O)Nc3ccncc3)c(=O)c3cccnc32)CC1 [Example 126, N-(4-pyridyl)-1-(trans-4-methoxycyclohexyl)-1,4-dihydro[1,8]naphthylidin-4-one-3-carboxamide]	1800	720
O=C(CN1CCC(n2cc(C(=O)Nc3c(Cl)cncc3Cl)c(=O)c3cccnc32)CC1)OCc1ccccc1 [Example 49, benzyl 2-{4-[3-[(3,5-dichloropyridin-4-yl)amino]carbonyl-1,4-dihydro[1,8]naphthylidin-4-one-1-yl]piperidino}acetate]	200	22
O=C(Nc1ccncc1)c1cn([C@H]2CC[C@H](O)CC2)c2ncccc2c1=O [Example 113, N-(4-pyridyl)-1-(trans-4-hydroxycyclohexyl)-1,4-dihydro[1,8]naphthylidin-4-one-3-carboxamide]	300	400
O=C(Nc1c(Cl)cncc1Cl)c1cn(N2CCOCC2)c2ncccc2c1=O [Example 107, N-(3,5-dichloropyridin-4-yl)-1-(1-morpholino)-1,4-dihydro[1,8]naphthylidin-4-one-3-carboxamide]	3	0.4
CCn1cc(C(=O)NCCc2ccncc2)c(=O)c2ccc(C)nc21 [Comp. Ex., N-(2-(4-pyridyl)ethyl)-1-ethyl-7-methyl-1,8-naphthyridin-1,4-dihydro-4-one-3-carboxyamide, reference compound]	10000	5200
O=C(Nc1c(Cl)cncc1Cl)c1cn(C2CCN(Cc3ccccc3)CC2)c2ncccc2c1=O [Example 46, N-(3,5-dichloropyridin-4-yl)-1-(benzylpiperidin-4-yl)-1,4-dihydro[1,8]naphthylidin-4-one-3-carboxamide]	500	13
COC(=O)N1CC(n2cc(C(=O)Nc3cccnc3)c(=O)c3cccnc32)C1 [Example 32, N-(3-pyridyl)-1-(1-methoxycarbonylazetidin-3-yl)-1,4-dihydro[1,8]naphthylidin-4-one-3-carboxamide]	4000	2200
